Consider one molecule from patent US20260272850A1, “Cannabinoid Dosing Regime for Acne” (priority 2018, published 2026).

SMILES strings stand for the structures. Where two headings read alike, the source gives them in different places.

A short description of data set [1]: Franz-type diffusion cell skin permeation of CBD from BTX 1503 5% Solution. It counts as in vitro ADME. The conditions noted are these: 48 hours; equivalent of ng/g of tissue. As for the experimental part: Dermatomed skin from a single donor was mounted in a Franz-type diffusion cell (0.55 cm^2 receptor fluid exposure surface area) and dosed with 5 ul of 2-[3-methyl-6-(1-methylethenyl)-2-cyclohexen-1-yl]-5-pentyl-1,3-benzenediol (CBD), BTX 1503 5% Solution, formulated in an mixture of a volatile solvent (hexylmethyldisiloxane/polymethylsiloxane—93% w/w), and residual solvent (arlamol E—2% w/w) at a concentration of 5.0% (w/w; 35.5 mg/ml). Following dosing, receptor phase samples were collected at 4, 10, 24 and 48 hours; after which the study was terminated.
The residual formulation was removed by tape stripping and the epidermis and dermis separated by blunt dissection. The levels of CBD in the epidermis, dermis, and receptor fluid samples were then analyzed using a bioanalytical method with LC-MS/MS detection.

Data set [2] can be described thus: Healthy volunteer study of single and multiple-dose BTX 1503 5% Solution (BTX.2017.001): pharmacokinetics. It counts as in vivo, human (healthy volunteers). Conditions: for Tmax: Day 1; for Cmax: topical or ocular, topical, Day 1, plasma CBD, read-out: mean Cmax after the first dose. On the procedure: The pharmacokinetics (PK) of single and multiple-dose administration of BTX 1503 5% Solution were evaluated in a healthy volunteer study. In this study, BTX 1503 5% Solution was applied as a single dose either QD or BID (12 hrs apart) on Day 1 followed by a 6-day washout period, then either QD or BID for 14 days (Day 8 to Day 21). Five subjects were enrolled in each cohort and doses were escalated for each sequential cohort enrolled with the following doses. • Cohort 1: 37.5 mg CBD/day or 0.066 mg/cm^2/day applied as 1 mL of BTX 1503 5% (w/w) QD • Cohort 2: 75 mg CBD/day or 0.133 mg/cm^2/day applied as 1 mL BTX 1503 5% (w/w) BID • Cohort 3: 112.5 mg CBD/day or 0.199 mg/cm^2/day applied as 3 mL of BTX 1503 5% (w/w) QD • Cohort 4: 225 mg CBD/day or 0.398 mg/cm^2/day applied as 3 mL of BTX 1503 5% (w/w) BID Area of application assumed to be 565 cm^2 (i.e., on the face), which is reported by the European Union Scientific Committee on Consumer Safety (SCCS) to be half of the surface area for a female head (SCCS Notes of Guidance for the Testing of Cosmetic Substances and Their Safety Evaluation, 8th edition, 2012; Table 2).
Blood samples were taken for PK assessments on Day 1 (Baseline) at pre-dose (15 mins before dosing), 30, 60 and 90 mins and 2, 2.5, 3, 4, 6, 8 and 12 hrs, and 24 hrs after the first single dose. For participants that received BID dosing, samples were also taken at 30, 60 and 90 mins and 2, 2.5, 3, 4, 6, and 8 hrs after the second dose on Day 1.
During the multiple dose (14-day) phase, trough levels were obtained before the morning application on Day 15. On Day 21, blood samples were taken for PK assessments at pre-dose (15 mins before dosing), 30, 60 and 90 mins and 2, 2.5, 3, 4, 6, 8 and 12 hrs, 24 hrs and 48 hrs after the morning dose. For participants that received BID dosing, samples were also be taken at 30, 60 and 90 mins and 2, 2.5, 3, 4, 6, and 8 hrs after the second dose on Day 21. A sample was obtained on Day 23, 48 hrs after the last morning dose.

Another data set concerns skin of minipigs. Description: 28-day study in minipigs: dermal tolerability and exposure. It counts as in vivo. The conditions noted are these: no observed effect in minipigs. On the procedure:
This dose level is well below that tested and shown to be well-tolerated in a 28-day study in minipigs. Specifically, the NOAEL for dermal tolerability of BTX 1503 5% (w/w) on the skin of minipigs was 3.0 mg/cm^2/day (150 mg/kg/day), which is ~7.5 times the daily dose delivered in this study. In addition, based on the ratio of the mean Cmax observed in the 28-day minipig study to the mean Cmax in the 3 mL BID cohort in the Phase 1 a healthy volunteer study, there was >300 times the level of CBD, with no observed effect, in the minipigs.

Data set [3] can be described thus: Open-label study in patients with acne vulgaris: study drug (CBD) plasma levels. It counts as in vivo, human. The conditions noted are these: throughout the study, 225 mg CBD/day topical. The source says:
Subjects returned to the clinic on Day 14 for vital signs, cutaneous tolerability assessments, and a blood draw for study drug plasma levels. Subjects were also queried for adverse events (AEs) and changes in concomitant medications. Diaries and study drug were returned and reviewed for compliance. In addition, the subject applied their morning dose of study drug during the visit for the clinical site to confirm correct application techniques. Another 14 days of study drug were dispensed along with the diary for the last two weeks of study drug treatment. […]
Safety was the primary outcome measure. The safety outcomes were measured through assessment of: • AEs monitored from time of consent through the end of study. • Cutaneous tolerability (erythema, scaling, dryness, burning/stinging, and irritant/allergic contact dermatitis) collected at Baseline, Day 14, Day 28, and Day 35 and graded using the following scale: 0, None; 1, Slight; 2, Moderate; 3, Severe. • Vital signs (temperature, blood pressure, and pulse) obtained at Baseline, Day 14, Day 28 and Day 35. • Complete blood count (CBC), chemistry, and urinalysis at Baseline and at Day 28. Blood levels of study drug will be measured at Baseline and prior to dosing (trough level) on Day 14, Day 28, and Day 35. […]

In data set [4] the test system is immortalized human sebocytes. The conditions noted are these: cited from earlier work.
In data set [5] the target is human vanilloid receptor type 1 (VR1) (Homo sapiens, UniProt Q8NER1). Conditions: in vitro; cited from earlier work.
Sequence of human vanilloid receptor type 1 (VR1) (Q8NER1 whole entry): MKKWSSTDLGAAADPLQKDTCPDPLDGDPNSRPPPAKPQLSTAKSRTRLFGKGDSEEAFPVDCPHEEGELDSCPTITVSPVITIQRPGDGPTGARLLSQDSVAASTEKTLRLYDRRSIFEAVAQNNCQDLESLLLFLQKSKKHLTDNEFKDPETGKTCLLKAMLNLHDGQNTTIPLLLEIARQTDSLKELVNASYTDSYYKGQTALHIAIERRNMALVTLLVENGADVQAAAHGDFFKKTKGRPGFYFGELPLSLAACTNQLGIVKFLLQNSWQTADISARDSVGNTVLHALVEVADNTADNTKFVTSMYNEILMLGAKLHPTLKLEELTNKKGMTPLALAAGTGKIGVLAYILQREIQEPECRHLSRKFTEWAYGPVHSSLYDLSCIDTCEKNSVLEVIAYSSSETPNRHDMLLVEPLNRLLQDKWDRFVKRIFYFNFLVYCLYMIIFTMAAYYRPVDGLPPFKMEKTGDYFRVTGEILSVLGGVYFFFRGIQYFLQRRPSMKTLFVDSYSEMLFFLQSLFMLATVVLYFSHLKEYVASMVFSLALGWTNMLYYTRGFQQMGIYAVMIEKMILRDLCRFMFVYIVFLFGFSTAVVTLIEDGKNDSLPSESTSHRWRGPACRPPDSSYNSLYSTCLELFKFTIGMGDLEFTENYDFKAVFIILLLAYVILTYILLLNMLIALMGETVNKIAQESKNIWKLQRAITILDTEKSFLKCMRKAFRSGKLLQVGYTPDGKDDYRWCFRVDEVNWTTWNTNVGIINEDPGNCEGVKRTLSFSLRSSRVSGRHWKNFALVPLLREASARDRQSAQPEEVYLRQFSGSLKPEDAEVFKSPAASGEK
For the next data set, the system named is sensitized guinea-pigs. Conditions: intravenous administration; cited from earlier work.
A further data set relates to rats. Conditions: injected; cited from earlier work.

`C=C(C)C1CCC(C)=CC1c1c(O)cc(CCCCC)cc1O` (centres unmarked) [CBD, 2-[3-methyl-6-(1-methylethenyl)-2-cyclohexen-1-yl]-5-pentyl-1,3-benzenediol]: the dermis concentration in data set [1] is ~ 1,933 ng/mL. The “mean pre-dose level on Day 21” value is recorded as 0.545 ng/mL in data set [2] (Cohort 1), 0.770 ng/mL in data set [2] (Cohort 2), 0.715 ng/mL in data set [2] (Cohort 3) and 1.553 ng/mL in data set [2] (Cohort 4). Also, the concentration at 15 study day in data set [2] (human, in vivo, 75 mg CBD/day, Cohort 2, 75 mg CBD/day, multiple dose phase, read-out: mean CBD trough level on Day 15) came to 0.781 ng/mL; in data set [2] (human, in vivo, 112.5 mg CBD/day, Cohort 3, 112.5 mg CBD/day, multiple dose phase, read-out: mean CBD trough level on Day 15) it was 0.525 ng/mL; in data set [2] (human, in vivo, 225 mg CBD/day, Cohort 4, 225 mg CBD/day, multiple dose phase, all subjects, read-out: mean CBD trough level on Day 15), 2.11 ng/mL; in data set [2] (human, in vivo, 225 mg CBD/day, Cohort 4, one outlier, read-out: CBD trough level on Day 15, outlier subject), 5.99 ng/mL; in data set [2] (human, in vivo, 225 mg CBD/day, Cohort 4, without the outlier subject, read-out: mean CBD trough level on Day 15), 1.16 ng/mL. In addition, the Tmax was 18 to 20 h in data set [2] (human, in vivo, after BID dosing) and 12 h in data set [2] (human, in vivo, after QD dosing). The concentration at 7 days in data set [2] (human, in vivo, all cohorts, study Day 8, seven days after initial dosing, read-out: Levels of CBD (below the limits of quantitation)) was less than 0.2 ng/mL. In addition, the Cmax in data set [2] (human, in vivo, Cohort 1: 37.5 mg CBD/day, 1 mL BTX 1503 5% QD) was found to be 0.309 ng/mL; in data set [2] (human, in vivo, Cohort 2: 75 mg CBD/day, 1 mL BTX 1503 5% BID) it was 0.562 ng/mL; in data set [2] (human, in vivo, Cohort 3: 112.5 mg CBD/day, 3 mL BTX 1503 5% QD), 0.626 ng/mL; in data set [2] (human, in vivo, Cohort 4: 225 mg CBD/day, 3 mL BTX 1503 5% BID), 0.876 ng/mL. Further, the “ratio of mean Cmax in 28-day minipig study to mean Cmax in 3 mL BID healthy volunteer cohort” value in the data set with skin of minipigs is reported as greater than 300 times. The “Study drug (CBD) plasma levels” value in data set [3] is “low”. Besides, the effects on sebocytes entry in data set [4] was “lipostatic, anti-proliferative, and anti-inflammatory effects”. In data set [5], the “effect on VR1” value is recorded as “stimulate”. For the same molecule, the “effect on airway obstruction” value with sensitized guinea-pigs is “reduced airway obstruction”. Further, the “effect on cardiac inflammation” value in the data set on rats was “attenuated cardiac inflammation”.
